Experimental data reported in PubChem BioAssay (NCI).
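Interpolation was linear, between the two tested concentrations surrounding the appropriate level; five concentrations were tested over 48 hours in 96-well plates. TGI: total growth inhibition.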

Columns and labels:
Test in all cases: NCI-60 cell line screen, 48 h
HCT-116 colon = system: HCT-116 colon
SN12C renal = system: SN12C renal
UACC-62 melanoma = system: UACC-62 melanoma
SK-MEL-28 melanoma = system: SK-MEL-28 melanoma
U251 CNS = system: U251 CNS
UACC-257 melanoma = system: UACC-257 melanoma
KM20L2 colon = system: KM20L2 colon
HT29 colon = system: HT29 colon
NCI-H522 lung = system: NCI-H522 lung
SF-539 CNS = system: SF-539 CNS
OVCAR-4 ovarian = system: OVCAR-4 ovarian
HCT-15 colon = system: HCT-15 colon
CAKI-1 renal = system: CAKI-1 renal
786-0 renal = system: 786-0 renal
RXF 393 renal = system: RXF 393 renal
DMS 273 small cell lung = system: DMS 273 small cell lung
SW-620 colon = system: SW-620 colon
MALME-3M melanoma = system: MALME-3M melanoma
CCRF-CEM leukemia = system: CCRF-CEM leukemia
TK-10 renal = system: TK-10 renal
NCI-H226 lung = system: NCI-H226 lung
DLD-1 colon = system: DLD-1 colon
HOP-18 NSCLC = system: HOP-18 NSCLC
NCI-H23 lung = system: NCI-H23 lung
UO-31 renal = system: UO-31 renal
K-562 leukemia = system: K-562 leukemia
M19-MEL melanoma = system: M19-MEL melanoma
SF-295 CNS = system: SF-295 CNS
LXFL 529 NSCLC = system: LXFL 529 NSCLC
COLO 205 colon = system: COLO 205 colon
HCC-2998 colon = system: HCC-2998 colon
OVCAR-8 ovarian = system: OVCAR-8 ovarian
IGROV1 ovarian = system: IGROV1 ovarian
ACHN renal = system: ACHN renal
SK-OV-3 ovarian = system: SK-OV-3 ovarian
HOP-92 NSCLC = system: HOP-92 NSCLC
A498 renal = system: A498 renal
KM12 colon = system: KM12 colon
SK-MEL-5 melanoma = system: SK-MEL-5 melanoma
EKVX NSCLC = system: EKVX NSCLC
OVCAR-3 ovarian = system: OVCAR-3 ovarian
NCI-H460 lung = system: NCI-H460 lung
LOX IMVI melanoma = system: LOX IMVI melanoma
RPMI-8226 leukemia = system: RPMI-8226 leukemia
SF-268 CNS = system: SF-268 CNS
OVCAR-5 ovarian = system: OVCAR-5 ovarian
HOP-62 NSCLC = system: HOP-62 NSCLC
RXF-631 renal = system: RXF-631 renal
SNB-19 CNS = system: SNB-19 CNS
DMS 114 small cell lung = system: DMS 114 small cell lung
A549 NSCLC = system: A549 NSCLC
M14 melanoma = system: M14 melanoma
SNB-78 CNS = system: SNB-78 CNS
SNB-75 CNS = system: SNB-75 CNS
MOLT-4 leukemia = system: MOLT-4 leukemia
SK-MEL-2 melanoma = system: SK-MEL-2 melanoma
SR leukemia = system: SR leukemia
HL-60(TB) leukemia = system: HL-60(TB) leukemia

Compound `O=C(C=P(c1ccccc1)(c1ccccc1)c1ccccc1)CC(=S)CC(=O)C=P(c1ccccc1)(c1ccccc1)c1ccccc1` has a TGI (HCT-116 colon) of over 100 µM, a TGI (SN12C renal) of 17.9 µM and a TGI (UACC-62 melanoma) of 47.1 µM. It also gave a TGI (SK-MEL-28 melanoma) of over 100 µM, a TGI (U251 CNS) of 11.7 µM and a TGI (UACC-257 melanoma) of 13 µM. For the same compound, the TGI (KM20L2 colon) was over 100 µM, the TGI (HT29 colon) was over 100 µM and the TGI (NCI-H522 lung) was 15.7 µM. For the same compound, the TGI (SF-539 CNS) was 25 µM, the TGI (OVCAR-4 ovarian) was over 100 µM and the TGI (HCT-15 colon) was 29.3 µM. The TGI (CAKI-1 renal) was over 100 µM, the TGI (786-0 renal) was over 100 µM and the TGI (RXF 393 renal) was 25.2 µM. The TGI (DMS 273 small cell lung) was 10.1 µM, the TGI (SW-620 colon) was over 100 µM and the TGI (MALME-3M melanoma) was over 100 µM. It also gave a TGI (CCRF-CEM leukemia) of over 100 µM, a TGI (TK-10 renal) of 50.8 µM and a TGI (NCI-H226 lung) of 24.1 µM. For the same compound, the TGI (DLD-1 colon) was 17.9 µM, the TGI (HOP-18 NSCLC) was 9.04 µM and the TGI (NCI-H23 lung) was 16.4 µM. It also gave a TGI (UO-31 renal) of 98.9 µM, a TGI (K-562 leukemia) of over 100 µM and a TGI (M19-MEL melanoma) of over 100 µM. It also gave a TGI (SF-295 CNS) of 14.5 µM, a TGI (LXFL 529 NSCLC) of 20.1 µM and a TGI (COLO 205 colon) of 3.71 µM. For the same compound, the TGI (HCC-2998 colon) was 14.7 µM, the TGI (OVCAR-8 ovarian) was 22.9 µM and the TGI (IGROV1 ovarian) was over 100 µM. For the same compound, the TGI (ACHN renal) was 53.6 µM, the TGI (SK-OV-3 ovarian) was over 100 µM and the TGI (HOP-92 NSCLC) was 6.09 µM. For the same compound, the TGI (A498 renal) was 20.6 µM, the TGI (KM12 colon) was 18.8 µM and the TGI (SK-MEL-5 melanoma) was 8.26 µM. It also gave a TGI (EKVX NSCLC) of over 100 µM, a TGI (OVCAR-3 ovarian) of 12.5 µM and a TGI (NCI-H460 lung) of 46.7 µM. The TGI (LOX IMVI melanoma) was over 100 µM, the TGI (RPMI-8226 leukemia) was over 100 µM and the TGI (SF-268 CNS) was over 100 µM. For the same compound, the TGI (OVCAR-5 ovarian) was 80 µM, the TGI (HOP-62 NSCLC) was 24.8 µM and the TGI (RXF-631 renal) was over 100 µM. It also gave a TGI (SNB-19 CNS) of over 100 µM, a TGI (DMS 114 small cell lung) of 27 µM and a TGI (A549 NSCLC) of over 100 µM. It also gave a TGI (M14 melanoma) of 20.5 µM.

With `CC1=C(/C=C/C(C)=C/C=C/C(C)=C/C=C/C=C(C)/C=C/C=C(C)/C=C/C=C(C)/C=C/C=C(\C)C(=O)O)C(C)(C)CCC1` the TGI (HCT-116 colon) was over 100 µM, the TGI (SN12C renal) was over 100 µM and the TGI (UACC-62 melanoma) was over 100 µM. The TGI (SK-MEL-28 melanoma) was over 100 µM, the TGI (U251 CNS) was over 100 µM and the TGI (UACC-257 melanoma) was over 100 µM. For the same compound, the TGI (KM20L2 colon) was over 100 µM, the TGI (HT29 colon) was over 100 µM and the TGI (NCI-H522 lung) was over 100 µM. For the same compound, the TGI (SF-539 CNS) was over 100 µM, the TGI (OVCAR-4 ovarian) was over 100 µM and the TGI (HCT-15 colon) was over 100 µM. For the same compound, the TGI (CAKI-1 renal) was over 100 µM, the TGI (786-0 renal) was over 100 µM and the TGI (RXF 393 renal) was over 100 µM. The TGI (DMS 273 small cell lung) was over 100 µM, the TGI (SW-620 colon) was over 100 µM and the TGI (MALME-3M melanoma) was over 100 µM. The TGI (CCRF-CEM leukemia) was over 100 µM, the TGI (TK-10 renal) was over 100 µM and the TGI (NCI-H226 lung) was over 100 µM. The TGI (DLD-1 colon) was over 100 µM, the TGI (HOP-18 NSCLC) was over 100 µM and the TGI (NCI-H23 lung) was over 100 µM. The TGI (UO-31 renal) was over 100 µM, the TGI (K-562 leukemia) was over 100 µM and the TGI (SF-295 CNS) was over 100 µM. The TGI (LXFL 529 NSCLC) was over 100 µM, the TGI (COLO 205 colon) was over 100 µM and the TGI (SNB-78 CNS) was over 100 µM. For the same compound, the TGI (OVCAR-8 ovarian) was over 100 µM, the TGI (IGROV1 ovarian) was over 100 µM and the TGI (ACHN renal) was over 100 µM. For the same compound, the TGI (SK-OV-3 ovarian) was over 100 µM, the TGI (A498 renal) was over 100 µM and the TGI (KM12 colon) was over 100 µM. It also gave a TGI (SNB-75 CNS) of over 100 µM, a TGI (SK-MEL-5 melanoma) of over 100 µM and a TGI (MOLT-4 leukemia) of over 100 µM. For the same compound, the TGI (EKVX NSCLC) was over 100 µM, the TGI (OVCAR-3 ovarian) was over 100 µM and the TGI (NCI-H460 lung) was over 100 µM. It also gave a TGI (RPMI-8226 leukemia) of over 100 µM, a TGI (SF-268 CNS) of over 100 µM and a TGI (OVCAR-5 ovarian) of over 100 µM. It also gave a TGI (HOP-62 NSCLC) of over 100 µM, a TGI (RXF-631 renal) of over 100 µM and a TGI (SNB-19 CNS) of over 100 µM. The TGI (SK-MEL-2 melanoma) was over 100 µM, the TGI (DMS 114 small cell lung) was over 100 µM and the TGI (A549 NSCLC) was over 100 µM. It also gave a TGI (M14 melanoma) of over 100 µM.

With `COc1ccc(OC)c2c(C(=O)O)c(C(C)c3ccccc3)ccc12` (configuration not stated) the TGI (HCT-116 colon) was over 100 µM, the TGI (SN12C renal) was over 100 µM and the TGI (UACC-62 melanoma) was over 100 µM. It also gave a TGI (SK-MEL-28 melanoma) of over 100 µM, a TGI (U251 CNS) of over 100 µM and a TGI (UACC-257 melanoma) of over 100 µM. The TGI (KM20L2 colon) was over 100 µM, the TGI (HT29 colon) was over 100 µM and the TGI (NCI-H522 lung) was over 100 µM. The TGI (OVCAR-4 ovarian) was over 100 µM, the TGI (HCT-15 colon) was over 100 µM and the TGI (CAKI-1 renal) was over 100 µM. For the same compound, the TGI (786-0 renal) was over 100 µM, the TGI (RXF 393 renal) was over 100 µM and the TGI (SR leukemia) was over 100 µM. For the same compound, the TGI (DMS 273 small cell lung) was over 100 µM, the TGI (SW-620 colon) was over 100 µM and the TGI (MALME-3M melanoma) was over 100 µM. The TGI (CCRF-CEM leukemia) was over 100 µM, the TGI (TK-10 renal) was over 100 µM and the TGI (NCI-H226 lung) was over 100 µM. It also gave a TGI (DLD-1 colon) of over 100 µM, a TGI (HOP-18 NSCLC) of over 100 µM and a TGI (NCI-H23 lung) of over 100 µM. The TGI (UO-31 renal) was over 100 µM, the TGI (K-562 leukemia) was over 100 µM and the TGI (M19-MEL melanoma) was over 100 µM. For the same compound, the TGI (SF-295 CNS) was over 100 µM, the TGI (LXFL 529 NSCLC) was over 100 µM and the TGI (COLO 205 colon) was over 100 µM. For the same compound, the TGI (HCC-2998 colon) was over 100 µM, the TGI (OVCAR-8 ovarian) was over 100 µM and the TGI (IGROV1 ovarian) was over 100 µM. It also gave a TGI (ACHN renal) of over 100 µM, a TGI (SK-OV-3 ovarian) of over 100 µM and a TGI (HL-60(TB) leukemia) of over 100 µM. For the same compound, the TGI (A498 renal) was over 100 µM, the TGI (KM12 colon) was over 100 µM and the TGI (SNB-75 CNS) was over 100 µM. It also gave a TGI (SK-MEL-5 melanoma) of over 100 µM, a TGI (MOLT-4 leukemia) of over 100 µM and a TGI (EKVX NSCLC) of over 100 µM. For the same compound, the TGI (OVCAR-3 ovarian) was over 100 µM, the TGI (NCI-H460 lung) was over 100 µM and the TGI (LOX IMVI melanoma) was over 100 µM. It also gave a TGI (SF-268 CNS) of over 100 µM, a TGI (OVCAR-5 ovarian) of over 100 µM and a TGI (HOP-62 NSCLC) of over 100 µM. The TGI (RXF-631 renal) was over 100 µM, the TGI (SNB-19 CNS) was over 100 µM and the TGI (SK-MEL-2 melanoma) was over 100 µM. The TGI (A549 NSCLC) was over 100 µM and the TGI (M14 melanoma) was over 100 µM.
